Assay results published in patent publication US11655254B2, “Substituted piperazines as BTK inhibitors” (HUTCHISON MEDIPHARMA LIMITED, priority 2020, dated 2023).

Columns and labels:
[1] = system: B cell activation in rat whole blood; assay: Determination of B cell activity in whole blood of rats (anti-rat IgD induced); assay type: cell-based; details: anti-rat immunoglobulin D, 18 hours, flow cytometry B220/CD86, read-out: IC50 value, inhibiting B cell activation in rat whole blood
Procedure: In the determination of the compound activity, the collected peripheral whole blood of rat was added to a 96 well plate at 80 μL/well and cultured in a 5% CO2, 37° C. cell incubator. […]
On the second day, the 96-well plates were taken out and the flow cytometry antibody mixture (the final concentration of anti-rat B220PE antibody was 1 μg/mL and the final concentration of anti-rat CD86 FITC antibody was 1 μg/mL) diluted with PBS was added to each well of plate, which were incubated for 30 minutes in the dark, and then 50 […] of blood from each well was pipetted to the freshly prepared 500 μL of lysis buffer to lyse red blood cells. The plates were shaken for 20 minutes, centrifuged to remove the supernatant, then washed, fixed, and detected on a flow cytometer.
The B cell activation in the sample was determined by flow dyeing method. […]
The inhibition ratio is calculated as follows: inhibition ratio (%)=100%−{(treating well for the test compound−negative control treating well)/(control treating well for anti-rat immunoglobulin D−negative control treating well)}×100%, wherein, […]

[2] = Drug concentration in plasma of mice of the B cell activation study; assay type: in vivo; details: C57BL/6, plasma; mouse, 5 mg/kg oral, 16 h after administration
Procedure: The animals of each group were administered, then were placed in CO2 for anesthesia at designated time points, blood samples were taken from […] via retro-orbital bleeding, and heparin was used for anticoagulation; 90 μL of whole blood was taken from mice of each group, and added to a 96 well culture plate, and anti-mouse IgD antibody (BIO-RAD, Cat #MCA4693) was added to each well to a final concentration of 0.01 μg/μL (respectively for each drug-treated group and anti-IgD antibody-inducted vehicle group); in addition, 90 μL of whole blood of mice in the vehicle group was taken and added to the 96-well culture plate, and PBS (phosphate buffer, GIBCO, Cat # C20012500BT) was added to each well to a final concentration of 0.01 μg/μL (namely, the vehicle control group); Each group was mixed well and incubated in a 37° C./5% CO2 incubator for 4 hours. In addition, the blood of mice in the drug-treated group was centrifuged to separate plasma for blood concentration analysis.

[3] = system: ITP mice (anti-mouse CD41 antibodies); assay: Idiopathic thrombocytopenic purpura induced by anti-CD41 antibody in mice; assay type: in vivo; details: 8 hours after modeling, single oral dose
Procedure: Male C57BL/6 mice were purchased from Shanghai Lingchang Biotechnology Co., Ltd. (certificate number 20180003011079, initial body weight of 18-20 grams), and were randomly grouped according to Table 4, with 8 mice in each group. […] When modeling, each mouse was intraperitoneally injected with 200 μL of PBS solution containing 2 μg of anti-mouse CD41 antibodies (BD, Cat #: 553487, Lot #: 7026765).
Eight hours and twenty-four hours after modeling, the whole blood was collected and placed in a centrifuge tube coated with 10% citrate-phosphate-dextrose-adenine (CPDA), and the level of platelets (PLT) in the whole blood was measured by an XT-2000i (SYSMEX) automatic blood analyzer (Shanghai Laboratory Animal Research Centre Sino-British SIPPR/B & K Lab Animal Ltd).
The average level of platelets in peripheral blood was analyzed with Graphpad statistical software by one way ANOVA followed by Fisher LSD multiple comparison test, and the p value was calculated, wherein *p<0.05 indicated a statistically significant difference compared with the vehicle control group, **p<0.01 indicated a statistically extremely significant difference compared with the vehicle control group, and ##p<0.01 indicated a statistically extremely significant difference compared with the normal group. […]

C[C@H]1CN(C2COC2)C[C@H](C)N1c1ccc(Nc2cc(-c3ccnc(-n4ccn5c6c(cc5c4=O)CC(C)(C)C6)c3CO)cn(C)c2=O)nc1 [Compound 1, 2-(5-((5-((2S,6S)-2,6-dimethyl-4-(oxetan-3-yl)piperazin-1-yl)pyridin-2-yl)amino)-3′-(hydroxymethyl)-1-methyl-6-oxo-1,6-dihydro-[3,4′-bipyridin]-2′-yl)-7,7-dimethyl-7,8-dihydro-2H-cyclopenta[4,5]pyrrolo[1,2-a]pyrazin-1(6H)-one]
IC50 [1]: 1 nM | concentration at 16 h [2]: 6.27 ± 1.68 ng/mL | minimum effective dose [3]: 0.04 mg/kg
